We go through 30 compounds from US10087185B2 (Janssen Pharmaceutica NV, priority 2016, dated 2018).

One may read the IC50 as the concentration that gives 50% inhibition.

The test has as its target TARP γ8 dependent AMPA receptor (GRIA1o-CACNG8 fusion construct) (Homo sapiens (Human), UniProt P42261+Q8WXS5). The test can be described thus: Calcium flux assay (FLIPR), inhibition of glutamate response of GluA1o-γ8 channel. Conditions: HEK293 cells stably expressing GRIA1o-CACNG8 fusion; calcium flux after 15 μM glutamate; negative log of the IC50 in molar. It is filed as cell-based. The source says:
This assay was used to test compounds for their ability to inhibit TARP γ8 dependent AMPA receptor activity. The AMPA receptor is a non-selective cation channel activated by glutamate. […] But, this desensitization is incomplete, and a substantial steady-state current remains in the sustained presence of glutamate (Cho et al. (2007). “Two families of TARP isoforms that have distinct effects on the kinetic properties of AMPA receptors and synaptic currents.” Neuron 55(6): 890-904).
An in vitro assay was used to determine the potency of test compounds as inhibitors of the glutamate response of the channel formed by GluA10-γ8. To ensure a 1:1 stoichiometry of GluA1o and γ8 subunits in the expressed channel, a fusion of the cDNAs for GRIA1o and CACNG8 was used. Following Shi et al (2009) “The stoichiometry of AMPA receptors and TARPs varies by neuronal cell type.” Neuron 62(5): 633-640), the C-terminus of the cDNA for GRIA1o was fused to the N-terminus of the cDNA for γ8. The linker sequence was […]. Channels expressed with this construct appear to have similar properties to channels formed by co-expression of GRIA1o with an excess of CACNG8 (Shi et al. 2009). A clonal cell line in HEK293 cells stably expressing this construct, with a geneticin selection marker, was generated for use in this assay.
Cell expressing the GRIA1o-CACNG8 fusion construct were grown in a monolayer in 96- or 384-well microtiter plates. They were washed with assay buffer (135 mM NaCl, 4 mM KCl, 3 mM CaCl2, 1 mM MgCl2, 5 mM glucose, 10 mM HEPES, pH 7.4, 300 mOs) using a Biotek EL405 plate washer. The cells were then loaded with a calcium-sensitive dye (Calcium-5 or Calcium-6, Molecular Devices) and the test compounds at a range of concentrations. Calcium flux following the addition of 15 μM glutamate was monitored using a Molecular Devices FLIPR Tetra.
The fluorescence in each well was normalized to the fluorescence of negative and positive control wells. The negative control wells had no added compounds, and the positive control wells had been incubated with 10 μM CP465022 (a non-subtype-selective AMPA receptor antagonist) (Lazzaro et al. (2002). “Functional characterization of CP-465,022, a selective, noncompetitive AMPA receptor antagonist.” Neuropharmacology 42(2): 143-153). The responses to glutamate as functions of the test compound concentrations were fitted to a four-parameter logistic function. The fitted parameter corresponding to the midpoint was taken to be the potency of inhibition of the compound. The data in Table 4 below illustrates the observed potency for the compounds described herein. pIC50 refers to the negative log of the IC50 in molar.
On the technique in general: Calcium flux is commonly read through the fluorescence of an indicator in the cells.

Chain of TARP γ8 dependent AMPA receptor (GRIA1o-CACNG8 fusion construct) (P42261 other isoform, or with tags, fused parts or gaps): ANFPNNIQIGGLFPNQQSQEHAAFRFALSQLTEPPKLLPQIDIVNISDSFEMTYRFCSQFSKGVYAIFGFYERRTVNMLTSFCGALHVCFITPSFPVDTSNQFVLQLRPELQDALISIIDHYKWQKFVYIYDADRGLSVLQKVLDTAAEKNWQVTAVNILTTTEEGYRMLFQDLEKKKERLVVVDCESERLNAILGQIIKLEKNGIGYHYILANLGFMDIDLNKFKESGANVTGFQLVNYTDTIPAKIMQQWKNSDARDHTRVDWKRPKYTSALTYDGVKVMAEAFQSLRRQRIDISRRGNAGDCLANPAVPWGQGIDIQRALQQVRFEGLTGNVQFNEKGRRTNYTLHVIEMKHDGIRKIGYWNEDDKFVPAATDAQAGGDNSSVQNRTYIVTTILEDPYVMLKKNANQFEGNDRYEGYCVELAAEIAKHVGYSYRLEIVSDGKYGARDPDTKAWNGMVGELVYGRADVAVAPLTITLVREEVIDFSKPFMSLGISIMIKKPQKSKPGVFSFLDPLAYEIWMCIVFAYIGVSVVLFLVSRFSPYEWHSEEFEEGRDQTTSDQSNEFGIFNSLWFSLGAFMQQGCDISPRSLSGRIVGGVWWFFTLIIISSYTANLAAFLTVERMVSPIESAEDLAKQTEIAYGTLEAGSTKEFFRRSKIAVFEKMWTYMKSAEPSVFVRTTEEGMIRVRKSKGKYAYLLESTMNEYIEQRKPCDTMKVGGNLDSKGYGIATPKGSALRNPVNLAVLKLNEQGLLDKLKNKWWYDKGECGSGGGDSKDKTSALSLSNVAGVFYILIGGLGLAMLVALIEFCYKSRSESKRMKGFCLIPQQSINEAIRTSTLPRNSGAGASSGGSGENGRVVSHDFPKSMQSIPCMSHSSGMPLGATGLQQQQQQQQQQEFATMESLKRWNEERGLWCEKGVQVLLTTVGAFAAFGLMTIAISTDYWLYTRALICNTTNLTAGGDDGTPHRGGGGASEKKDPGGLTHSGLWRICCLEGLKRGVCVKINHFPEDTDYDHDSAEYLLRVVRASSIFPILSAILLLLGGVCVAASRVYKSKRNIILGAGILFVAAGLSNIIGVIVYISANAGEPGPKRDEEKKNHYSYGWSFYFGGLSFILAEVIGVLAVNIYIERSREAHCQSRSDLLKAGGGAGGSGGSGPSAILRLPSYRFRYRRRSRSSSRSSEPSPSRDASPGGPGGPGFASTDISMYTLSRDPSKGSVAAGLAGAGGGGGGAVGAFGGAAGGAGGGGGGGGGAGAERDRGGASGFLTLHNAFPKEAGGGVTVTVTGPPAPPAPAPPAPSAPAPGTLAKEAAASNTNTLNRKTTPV

Turning to `FC(F)(F)c1nc2ccc(C(F)(F)F)c(-c3cc(Cl)c4[nH]ncc4c3)n2n1` [Example 1, 5-(7-Chloro-1H-indazol-5-yl)-2,6-bis(trifluoromethyl)-[1,2,4]triazolo[1,5-a]pyridine], the IC50 was 0.0794 nM.

In the case of `Cc1cc(-c2c(C(F)(F)F)ccc3nc(C(F)(F)F)nn23)cc2cn[nH]c12` [Example 2, 5-(7-Methyl-1H-indazol-5-yl)-2,6-bis(trifluoromethyl)-[1,2,4]triazolo[1,5-a]pyridine], the IC50 was 0.2 nM. Consider `O=C1Cc2cc(-c3c(C(F)(F)F)ccc4nc(C(F)(F)F)nn34)cc(Cl)c2N1` [Example 3, 5-(2,6-Bis(trifluoromethyl)-[1,2,4]triazolo[1,5-a]pyridin-5-yl)-7-chloroindolin-2-one], for which the IC50 was 0.251 nM. The value for `Cc1cc(-c2c(C(F)(F)F)ccc3nc(C(F)(F)F)nn23)cc2c1NC(=O)C2` [Example 4, 5-(2,6-Bis(trifluoromethyl)-[1,2,4]triazolo[1,5-a]pyridin-5-yl)-7-methylindolin-2-one] was 0.501 nM; that for `FC(F)(F)c1nc2c(Cl)cc(C(F)(F)F)c(-c3cc(Cl)c4[nH]ncc4c3)n2n1` [Example 5, 8-Chloro-5-(7-chloro-1H-indazol-5-yl)-2,6-bis(trifluoromethyl)-[1,2,4]triazolo[1,5-a]pyridine] was 0.316 nM; that for `Cc1cc(C(F)(F)F)c(-c2cc(Cl)c3[nH]ncc3c2)n2nc(C(F)(F)F)nc12` [Example 6, 5-(7-Chloro-1H-indazol-5-yl)-8-methyl-2,6-bis(trifluoromethyl)-[1,2,4]triazolo[1,5-a]pyridine] was 0.2 nM. The value for `FC(F)c1nc2ccc(C(F)(F)F)c(-c3cc(Cl)c4[nH]ncc4c3)n2n1` [Example 7, 5-(7-Chloro-1H-indazol-5-yl)-2-(difluoromethyl)-6-(trifluoromethyl)-[1,2,4]triazolo[1,5-a]pyridine] was 0.0631 nM; that for `Cc1cc(-c2c(C(F)(F)F)ccc3nc(C(F)F)nn23)cc2cn[nH]c12` [Example 8, 5-(7-Methyl-1H-indazol-5-yl)-2-(difluoromethyl)-6-(trifluoromethyl)-[1,2,4]triazolo[1,5-a]pyridine] was 0.398 nM; that for `O=C1Cc2cc(-c3c(C(F)(F)F)ccc4nc(C(F)F)nn34)cc(Cl)c2N1` [Example 9, 7-Chloro-5-(2-(difluoromethyl)-6-(trifluoromethyl)-[1,2,4]triazolo[1,5-a]pyridin-5-yl)indolin-2-one] was 0.398 nM. Turning to `Cc1cc(-c2c(C(F)(F)F)ccc3nc(C(F)F)nn23)cc2c1NC(=O)C2` [Example 10, 7-Methyl-5-(2-(difluoromethyl)-6-(trifluoromethyl)-[1,2,4]triazolo[1,5-a]pyridin-5-yl)indolin-2-one], the IC50 was 0.794 nM.

In the case of `FC(F)c1nc2ccc(C(F)(F)F)c(-c3cc(C(F)(F)F)c4[nH]ncc4c3)n2n1` [Example 11, 2-(Difluoromethyl)-6-(trifluoromethyl)-5-(7-(trifluoromethyl)-1H-indazol-5-yl)-[1,2,4]triazolo[1,5-a]pyridine], the IC50 is 0.158 nM. The value for `COc1cc(-c2c(C(F)(F)F)ccc3nc(C(F)F)nn23)cc2c1NC(=O)C2` [Example 12, 5-(2-(Difluoromethyl)-6-(trifluoromethyl)-[1,2,4]triazolo[1,5-a]pyridin-5-yl)-7-methoxyindolin-2-one] was 5.01 nM; that for `COc1ccc2nc(C(F)F)nn2c1-c1cc(Cl)c2[nH]ncc2c1` [Example 13, 5-(7-Chloro-1H-indazol-5-yl)-2-(difluoromethyl)-6-methoxy-[1,2,4]triazolo[1,5-a]pyridine] was 5.01 nM; that for `COc1ccc2nc(C(F)F)nn2c1-c1cc(C)c2[nH]ncc2c1` [Example 14, 2-(Difluoromethyl)-6-methoxy-5-(7-methyl-1H-indazol-5-yl)-[1,2,4]triazolo[1,5-a]pyridine] was 5.01 nM.

Turning to `COc1ccc2nc(C(F)F)nn2c1-c1cc(C(F)(F)F)c2[nH]ncc2c1` [Example 15, 2-(Difluoromethyl)-6-methoxy-5-(7-(trifluoromethyl)-1H-indazol-5-yl)-[1,2,4]triazolo[1,5-a]pyridine], the IC50 is 2 nM. For the compound `FC(F)c1ccc2nc(C(F)(F)F)nn2c1-c1cc(Cl)c2[nH]ncc2c1` [Example 16, 5-(7-Chloro-1H-indazol-5-yl)-6-(difluoromethyl)-2-(trifluoromethyl)-[1,2,4]triazolo[1,5-a]pyridine], the IC50 is 0.1 nM.

For the compound `Cc1cc(-c2c(C(F)F)ccc3nc(C(F)(F)F)nn23)cc2cn[nH]c12` [Example 17, 6-(Difluoromethyl)-5-(7-methyl-1H-indazol-5-yl)-2-(trifluoromethyl)-[1,2,4]triazolo[1,5-a]pyridine], the IC50 is 0.158 nM. With `O=C1Cc2cc(-c3c(C(F)F)ccc4nc(C(F)(F)F)nn34)cc(Cl)c2N1` [Example 18, 7-Chloro-5-(6-(difluoromethyl)-2-(trifluoromethyl)-[1,2,4]triazolo[1,5-a]pyridin-5-yl)indolin-2-one] the figure was 0.251 nM; with `Cc1cc(-c2c(C(F)F)ccc3nc(C(F)(F)F)nn23)cc2c1NC(=O)C2` [Example 19, 5-[6-(Difluoromethyl)-2-(trifluoromethyl)-[1,2,4]triazolo[1,5-a]pyridin-5-yl]-7-methyl-indolin-2-one], 0.631 nM; with `COc1cc(-c2c(C(F)F)ccc3nc(C(F)(F)F)nn23)cc2c1NC(=O)C2` [Example 20, 5-[6-(Difluoromethyl)-2-(trifluoromethyl)-[1,2,4]triazolo[1,5-a]pyridin-5-yl]-7-methoxy-indolin-2-one], 2.51 nM. For the compound `Cc1nc2ccc(C(F)(F)F)c(-c3cc(Cl)c4[nH]ncc4c3)n2n1` [Example 21, 5-(7-Chloro-1H-indazol-5-yl)-2-methyl-6-(trifluoromethyl)-[1,2,4]triazolo[1,5-a]pyridine], the IC50 was 0.631 nM. The value for `Cc1nc2ccc(C(F)(F)F)c(-c3cc(C)c4[nH]ncc4c3)n2n1` [Example 22, 2-Methyl-5-(7-methyl-1H-indazol-5-yl)-6-(trifluoromethyl)-[1,2,4]triazolo[1,5-a]pyridine] was 12.6 nM; that for `Cc1nc2ccc(C(F)(F)F)c(-c3cc(Cl)c4c(c3)CC(=O)N4)n2n1` [Example 23, 7-Chloro-5-(2-methyl-6-(trifluoromethyl)-[1,2,4]triazolo[1,5-a]pyridin-5-yl)indolin-2-one] was 10 nM; that for `Cc1nc2ccc(C(F)(F)F)c(-c3cc(C)c4c(c3)CC(=O)N4)n2n1` [Example 24, 7-Methyl-5-(2-methyl-6-(trifluoromethyl)-[1,2,4]triazolo[1,5-a]pyridin-5-yl)indolin-2-one] was 20 nM.

With `CCc1nc2ccc(C(F)(F)F)c(-c3cc(Cl)c4[nH]ncc4c3)n2n1` [Example 25, 5-(7-Chloro-1H-indazol-5-yl)-2-ethyl-6-(trifluoromethyl)-[1,2,4]triazolo[1,5-a]pyridine], the IC50 was 0.398 nM.

Take `CCc1nc2ccc(C(F)(F)F)c(-c3cc(C)c4[nH]ncc4c3)n2n1` [Example 26, 2-Ethyl-5-(7-methyl-1H-indazol-5-yl)-6-(trifluoromethyl)-[1,2,4]triazolo[1,5-a]pyridine]: the IC50 was 1 nM.

For the compound `CCc1nc2ccc(C(F)(F)F)c(-c3cc(Cl)c4c(c3)CC(=O)N4)n2n1` [Example 27, 7-Chloro-5-(2-ethyl-6-(trifluoromethyl)-[1,2,4]triazolo[1,5-a]pyridin-5-yl)indolin-2-one], the IC50 is 1.26 nM. `CCc1nc2ccc(C(F)(F)F)c(-c3cc(C)c4c(c3)CC(=O)N4)n2n1` [Example 28, 5-(2-Ethyl-6-(trifluoromethyl)-[1,2,4]triazolo[1,5-a]pyridin-5-yl)-7-methylindolin-2-one]: the IC50 was 3.98 nM.

Consider `CCc1nc2c(Cl)cc(C(F)(F)F)c(-c3cc(Cl)c4[nH]ncc4c3)n2n1` [Example 29, 8-Chloro-5-(7-chloro-1H-indazol-5-yl)-2-ethyl-6-(trifluoromethyl)-[1,2,4]triazolo[1,5-a]pyridine], for which the half-maximal inhibitory concentration (IC50) is 0.398 nM.

For the compound `CCc1nc2c(Cl)cc(C(F)(F)F)c(-c3cc(C)c4[nH]ncc4c3)n2n1` [Example 30, 8-Chloro-2-ethyl-5-(7-methyl-1H-indazol-5-yl)-6-(trifluoromethyl)-[1,2,4]triazolo[1,5-a]pyridine], the half-maximal inhibitory concentration (IC50) is 3.98 nM.
